# How the values were obtained:
# Settings in all cases: treatment: drug alone; 5 days
# 786-O [1] = assay: AUC of dose-response viability curve, drug alone (arbitrary (AUC of normalised viability)); higher = less growth inhibition
# Protocol: (§1)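 Primary HTS: 8 RCC cell lines treated with 8 doses (up to 10 uM) of each library drug alone for 5 days; viability read by CellTiter-Glo and normalised to DMSO. GI50 was fitted with XLfit (4-parameter), AUC is the area under the dose-response curve, and minimum viability is the lowest fraction of DMSO viability across doses.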
# TK-10 [2] = assay: as above
# Protocol: as §1
# A498 [3] = assay: as above
# Protocol: as §1
# CAKI-1 [4] = assay: as above
# Protocol: as §1
# UO-31 [5] = assay: as above
# Protocol: as §1
# 769-P [6] = assay: as above
# Protocol: as §1
# ACHN [7] = assay: as above
# Protocol: as §1
# SN12C [8] = assay: as above
# Protocol: as §1
# 786-O [9] = assay: minimum viability across doses, drug alone, relative to DMSO (fraction); higher = less growth inhibition
# Protocol: as §1
# TK-10 [10] = assay: as above
# Protocol: as §1
# A498 [11] = assay: as above
# Protocol: as §1
# CAKI-1 [12] = assay: as above
# Protocol: as §1
# UO-31 [13] = assay: as above
# Protocol: as §1
# 769-P [14] = assay: as above
# Protocol: as §1
# ACHN [15] = assay: as above
# Protocol: as §1
# SN12C [16] = assay: as above
# Protocol: as §1
# 786-O [17] = assay: GI50, drug alone; higher = less potent
# Protocol: as §1
# TK-10 [18] = assay: GI50, drug alone; higher = less potent
# Protocol: as §1
# A498 [19] = assay: GI50, drug alone; higher = less potent
# Protocol: as §1
# CAKI-1 [20] = assay: GI50, drug alone; higher = less potent
# Protocol: as §1
# UO-31 [21] = assay: GI50, drug alone; higher = less potent
# Protocol: as §1
# 769-P [22] = assay: GI50, drug alone; higher = less potent
# Protocol: as §1
# ACHN [23] = assay: GI50, drug alone; higher = less potent
# Protocol: as §1
# SN12C [24] = assay: GI50, drug alone; higher = less potent
# Protocol: as §1
SMILES,AUC of dose-response viability curve (786-O [1]),AUC of dose-response viability curve (TK-10 [2]),AUC of dose-response viability curve (A498 [3]),AUC of dose-response viability curve (CAKI-1 [4]),AUC of dose-response viability curve (UO-31 [5]),AUC of dose-response viability curve (769-P [6]),AUC of dose-response viability curve (ACHN [7]),AUC of dose-response viability curve (SN12C [8]),minimum viability across doses (786-O [9]),minimum viability across doses (TK-10 [10]),minimum viability across doses (A498 [11]),minimum viability across doses (CAKI-1 [12]),minimum viability across doses (UO-31 [13]),minimum viability across doses (769-P [14]),minimum viability across doses (ACHN [15]),minimum viability across doses (SN12C [16]),"GI50, drug alone (786-O [17])","GI50, drug alone (TK-10 [18])","GI50, drug alone (A498 [19])","GI50, drug alone (CAKI-1 [20])","GI50, drug alone (UO-31 [21])","GI50, drug alone (769-P [22])","GI50, drug alone (ACHN [23])","GI50, drug alone (SN12C [24])"
CN1CCN(CCOc2cc(OC3CCOCC3)c3c(Nc4c(Cl)ccc5c4OCO5)ncnc3c2)CC1 [Saracatinib (AZD0530)],2.35,2.45,3.69,3.08,4.46,2.47,2.46,2.84,0.302,0.109,0.958,0.213,0.447,0.0835,0.22,0.504,2.81 µM,1.22 µM,> 10 µM,2.34 µM,8.99 µM,1.26 µM,1.03 µM,> 10 µM
Cc1cc(C)c(/C=C2\C(=O)Nc3ccccc32)[nH]1 [Semaxanib (SU5416)],3.12,3.2,3.76,3.45,4.68,3.45,2.92,3.42,0.778,0.778,0.97,0.902,0.928,0.892,0.76,0.911,> 10 µM,> 10 µM,> 10 µM,> 10 µM,> 10 µM,> 10 µM,> 10 µM,> 10 µM
CNC(=O)c1cc(Oc2ccc(NC(=O)Nc3ccc(Cl)c(C(F)(F)F)c3)cc2)ccn1.Cc1ccc(S(=O)(=O)O)cc1 [Sorafenib (Nexavar)],2.7,3.25,3.4,3.55,2.44,3.31,3.46,2.9,0.0994,0.513,0.627,0.18,0.00476,0.592,0.0796,0.154,4.87 µM,> 10 µM,> 10 µM,9.2 µM,0.734 µM,> 10 µM,8.05 µM,5.13 µM
CN1CCN(c2nc(C3=C(c4c[nH]c5ccccc45)C(=O)NC3=O)c3ccccc3n2)CC1 [Sotrastaurin (AEB071)],4,3.23,4.36,3.38,5.49,2.58,3.2,3.44,0.911,0.805,1.12,0.783,1.38,0.969,0.743,0.91,> 10 µM,> 10 µM,> 10 µM,> 10 µM,> 10 µM,> 10 µM,> 10 µM,> 10 µM
CN[C@@H]1C[C@H]2O[C@@](C)([C@@H]1OC)n1c3ccccc3c3c4c(c5c6ccccc6n2c5c31)C(=O)NC4 [Staurosporine],0.171,0.286,1.56,0.143,0.1,0.299,0.526,1.06,0.00288,0.0227,0.0127,0.00272,0.0116,0.00587,0.00377,0.00485,< 0.003 µM,< 0.003 µM,0.0909 µM,< 0.003 µM,< 0.003 µM,< 0.003 µM,0.00533 µM,0.0333 µM
CCN(CC)CCNC(=O)c1c(C)[nH]c(/C=C2\C(=O)Nc3ccc(F)cc32)c1C.O=C(O)C[C@H](O)C(=O)O [Sunitinib Malate (Sutent)],3.62,2.82,3.58,2.77,3.93,3.15,2.33,2.6,0.0182,0.186,0.21,0.0138,0.0171,0.156,0.0641,0.0296,3.98 µM,3.29 µM,5.2 µM,1.49 µM,3.15 µM,5.36 µM,0.65 µM,1.9 µM
COc1cc(N2CCC(N3CCN(C)CC3)CC2)ccc1Nc1ncc(Cl)c(Nc2ccccc2S(=O)(=O)C(C)C)n1 [TAE684 (NVP-TAE684)],1.87,2.82,3.29,2.9,4.34,3.21,2.65,2.74,0.124,0.356,0.399,0.255,0.927,0.722,0.237,0.182,< 0.003 µM,3.59 µM,1.43 µM,2.33 µM,> 10 µM,> 10 µM,1.84 µM,2.62 µM
CC(C)(O)CC(=O)NCCn1ccc2ncnc(Nc3ccc(Oc4cccc(C(F)(F)F)c4)c(Cl)c3)c21 [TAK-285],2.42,2.5,3.69,3.14,4.9,3.04,2.78,3.17,0.524,0.412,0.852,0.584,1.21,0.407,0.421,0.81,> 10 µM,3.95 µM,> 10 µM,> 10 µM,> 10 µM,6.69 µM,4.12 µM,> 10 µM
Cn1c(=O)c(F)c(Nc2ccc(I)cc2F)c2c(=O)n(C[C@@H](O)CO)cnc21 [TAK-733],2.08,1.72,3.42,1.57,3.49,2.33,1.8,2.08,0.396,0.242,0.784,0.17,0.0861,0.293,0.291,0.26,0.167 µM,0.149 µM,> 10 µM,0.095 µM,2.45 µM,0.933 µM,0.209 µM,0.758 µM
CCS(=O)(=O)c1cccc(-c2cc(C(=O)NC3CCN(C)CC3)c(C)c3[nH]c4ncc(C)cc4c23)c1 [TAK-901],1.81,2.27,3.09,2.65,4.08,3.25,2.33,1.98,0.00628,0.0432,0.0141,0.0277,0.21,0.521,0.0394,0.00544,0.381 µM,0.836 µM,0.956 µM,1.32 µM,8.94 µM,> 10 µM,0.708 µM,0.383 µM
Nc1nc(N)c2nc(-c3cccc(O)c3)c(-c3cccc(O)c3)nc2n1 [TG100-115],3.66,3.25,4.15,2.42,5.18,3.5,3.33,3.31,0.873,0.871,0.862,0.567,1.2,0.912,0.685,0.804,> 10 µM,> 10 µM,> 10 µM,> 10 µM,> 10 µM,> 10 µM,> 10 µM,> 10 µM
Cc1cc(C(C)Nc2ccccc2)c2nc(N3CCOCC3)cc(=O)n2c1 (centres undefined) [TGX-221],2.6,3.06,4.23,2.84,5.04,3.18,3.15,3.34,0.622,0.707,1.04,0.49,1.15,0.749,0.736,0.847,> 10 µM,> 10 µM,> 10 µM,8.6 µM,> 10 µM,> 10 µM,> 10 µM,> 10 µM
NC(=O)Nc1sc(-c2ccc(F)cc2)cc1C(N)=O [TPCA-1],2.54,2.53,4.38,2.67,3.64,3.16,2.57,3.24,0.189,0.178,1.1,0.117,0.627,0.355,0.201,0.544,4.89 µM,1.78 µM,> 10 µM,1.45 µM,> 10 µM,> 10 µM,1.29 µM,> 10 µM
Cc1[nH]c(/C=C2\C(=O)Nc3ccccc32)c(C)c1CCC(=O)O [TSU-68],3.1,3.26,3.71,3.34,2.36,3.3,3.12,3.41,0.786,0.855,0.884,0.903,0.879,0.887,0.752,0.882,> 10 µM,> 10 µM,> 10 µM,> 10 µM,> 10 µM,> 10 µM,> 10 µM,> 10 µM
CC(C)c1ccccc1Cc1cc(C(=O)Nc2ccc(S(=O)(=O)c3ccccc3C(C)(C)C)cc2)c(O)c(O)c1O [TW-37],1.54,2.25,4,2.77,4.07,3.12,2.48,2.97,0.0508,0.296,0.946,0.0857,0.0881,0.0442,0.0989,0.499,0.133 µM,1.73 µM,> 10 µM,0.926 µM,8.46 µM,2.8 µM,1.46 µM,> 10 µM
Nc1cccc(-c2cc3c(Oc4cccc(O)c4)ncnc3[nH]2)c1 [TWS119],3.03,2.75,3.93,3.09,4.2,2.93,2.77,2.86,0.154,0.0991,0.572,0.113,0.0946,0.0987,0.153,0.295,5.04 µM,2.65 µM,> 10 µM,4.56 µM,8.62 µM,3.63 µM,2.8 µM,5.5 µM
